Where two headings read alike, the source gives them in different places.
Columns and labels:
[1] = test system: L1210vDOX; assay: Reversal of MDR in L1210vDOX (MDR sensitization assay, doxorubicin with or without MDR inhibitor); assay type: cell-based, mouse; details: for IC50: 3 days
[2] = test system: HL60/ADR cells; assay: Reversal of MRP-mediated MDR in HL60/ADR cells (doxorubicin with or without MDR inhibitor); assay type: cell-based; details: for Fold reversal (IC50 doxorubicin alone / IC50 doxorubicin + MDR inhibitor): HL60/ADR
Method: We plated HL60/ADR cells in 96 well microtiter plates (4×10^4 cells/well). The cells were then exposed to various concentrations of doxorubicin (50 nM to 10 μM) in the presence or absence of various compounds of this invention at various concentrations (0.5-10 μM). After culturing the cells for 3 days, their viability was quantitated using the XTT dye method to assess mitochondrial function. […] IC50 values are expressed in nM. In all assays the intrinsic antiproliferative or cytotoxicity activity of the MDR inhibitors was also determined for HL60/ADR cells.

[3] = IC50 of doxorubicin in presence of 0.5 μM Cpd, read-out: IC50 DOX + 0.5 μM Cpd
[4] = IC50 of doxorubicin in presence of 1.0 μM Cpd, read-out: IC50 DOX + 1.0 μM Cpd
[5] = IC50 of doxorubicin in presence of 2.5 μM Cpd, read-out: IC50 DOX + 2.5 μM Cpd

Compound	MDR ratio (IC50 Dox / IC50 Dox+Inhibitor) ([1]; MDR ratio at 0.5 μM Cpd)	MDR ratio (IC50 Dox / IC50 Dox+Inhibitor) ([1]; MDR ratio at 1.0 μM Cpd)	MDR ratio (IC50 Dox / IC50 Dox+Inhibitor) ([1]; MDR ratio at 2.5 μM Cpd)	Fold reversal (IC50 doxorubicin alone / IC50 doxorubicin + MDR inhibitor) ([2]; ratio at 0.5 μM Cpd)	Fold reversal (IC50 doxorubicin alone / IC50 doxorubicin + MDR inhibitor) ([2]; ratio at 1.0 μM Cpd)	Fold reversal (IC50 doxorubicin alone / IC50 doxorubicin + MDR inhibitor) ([2]; ratio at 2.5 μM Cpd)	IC50 [1, 3] [µM]	IC50 [1, 4] [µM]	IC50 [1, 5] [µM]	IC50 ([2]; Homo sapiens, 72 h, doxorubicin alone, control of the compound of the line, HL60/ADR cells, 3 days, read-out: IC50 DOX Alone) [µM]
CCCOc1cc2c(c(OCCC)c1C)CC[C@@H](Cc1cccnc1)[C@H]2OC(=O)[C@@H]1CCCCN1C(=O)C(=O)c1cc(OC)c(OC)c(OC)c1 (single isomer, unassigned) [Compound 29B]	1.8	3.7	> 7.0	–	–	–	–	–	–	–
COc1cc(C(=O)C(=O)N(C)[C@@H](Cc2ccccc2)C(=O)O[C@@H]2CCCc3ccc(OCc4ccncc4)cc32)cc(OC)c1OC [Compound 20, 3-Benzyl-2(S)-(methyl-(2-oxo-2-(3,4,5-trimethoxyphenyl)-acetyl)amino) propanoic acid ((7-pyridin-4-ylmethoxy)-1,2,3,4-tetrahydronaphthalen-1(R)-yl) ester]	3.0	7.0	10.5	–	–	–	–	–	–	–
COc1cc(C(=O)C(=O)N2CCCC[C@H]2C(=O)N(Cc2ccccc2)C2CCCc3ccc(OCc4ccncc4)cc32)cc(OC)c1OC (single isomer, unassigned) [Compound 15]	6.1	> 8.5	> 8.5	–	–	–	–	–	–	–
COc1cc(C(=O)C(=O)N(C)[C@@H](Cc2ccccc2)C(=O)O[C@H]2CCCc3ccc(OCc4ccncc4)cc32)cc(OC)c1OC [Compound 21]	5.4	6.8	8.7	3.5	3.2	23	–	–	–	–
CCCOc1cc2c(c(OCCC)c1C)CC[C@H](Cc1cccnc1)[C@H]2OC(=O)[C@@H]1CCCCN1C(=O)C(=O)c1cc(OC)c(OC)c(OC)c1 (single isomer, unassigned) [Compound 30A]	1.4	2.3	> 7.0	–	–	–	–	–	–	–
COc1cc(C(=O)C(=O)N[C@@H](Cc2ccccc2)C(=O)O[C@@H]2CCCc3ccc(OCc4ccncc4)cc32)cc(OC)c1OC [Compound 19, 3-Benzyl-2(S)-((2-oxo-2-(3,4,5-trimethoxyphenyl-)acetyl)amino) propanoic acid ((7-pyridin-4-ylmethoxy)-1,2,3,4-tetrahydronaphthalen-1(R)-yl) ester]	1.6	2.4	6.3	–	–	–	–	–	–	–
CCCOc1cc2c(c(OCCC)c1C)CC[C@H](Cc1cccnc1)[C@@H]2OC(=O)[C@@H]1CCCCN1C(=O)C(=O)c1cc(OC)c(OC)c(OC)c1 [Compound 29A]	1.4	1.8	> 7.0	–	–	–	0.25	0.19	< 0.05	–
COc1cc(C(=O)C(=O)N2CCCC[C@H]2C(=O)O[C@H]2CCCc3ccc(OCc4ccncc4)cc32)cc(OC)c1OC [Compound 6, 1-(2-Oxo-2-(3,4,5-trimethoxyphenyl)-acetyl)-piperidine-2(S)-carboxylic acid 2-((7-pyridin-4-ylmethoxy)-1,2,3,4-tetrahydronaphthalen-1(S)-yl) ester]	4.8	6.3	9.5	8.8	6.4	39	–	–	–	–
COc1cc(C(=O)C(=O)N2CCCC[C@H]2C(=O)O[C@@H]2CCCc3ccc(OCc4ccncc4)cc32)cc(OC)c1OC [Compound 7, 1-(2 -Oxo-2(3,4,5-trimethoxyphenyl)-acetyl)-piperidine-2(S)-carboxylic acid 2-((7-pyridin-4-ylmethoxy)-1,2,3,4-tetrahydronaphthalen-1(R)-yl) ester]	23.1	4.8	9.5	–	–	–	–	–	–	–
COc1cc(C(=O)C(=O)N2CCCC[C@H]2C(=O)N[C@@H]2CCCc3ccc(OCc4ccncc4)cc32)cc(OC)c1OC [Compound 11A, 1-(2-Oxo-2-(3,4,5-trimethoxyphenyl)-acetyl)-piperidine-2(S)-carboxylic acid 2-((7-pyridin-4-ylmethoxy)-1,2,3,4-tetrahydronaphthalen-1(R)-yl) amide]	1.1	2.0	4.0	–	–	–	0.65	0.35	0.175	–
COc1cccc2c1C(=O)c1c(O)c3c(c(O)c1C2=O)C[C@@](O)(C(=O)CO)C[C@@H]3O[C@H]1C[C@H](N)[C@H](O)[C@H](C)O1 [DOX, doxorubicin, reference compound]	–	–	–	–	–	–	–	–	–	3.5
COc1cc(C(=O)C(=O)N2Cc3ccccc3C[C@H]2C(=O)O[C@H]2CCCc3ccc(OCc4ccncc4)cc32)cc(OC)c1OC [Compound 18, 2-(2-Oxo-2-(3,4,5-trimethoxyphenyl)-acetyl)-1,2,3,4-tetrahydroisoquinoline-3(S)-carboxylic acid 2-((7-pyridin-4-ylmethoxy)-1,2,3,4-tetrahydronaphthalen-1(S)-yl) ester]	3.3	6.7	10.0	–	–	–	–	–	–	–
COc1cc(C(=O)C(=O)N2CCCC[C@H]2C(=O)N(Cc2ccccc2)C2CCCc3ccc(OCc4ccncc4)cc32)cc(OC)c1OC (single isomer, unassigned) [Compound 16]	2.2	7.1	> 8.5	2.3	39	> 60	–	–	–	–
COc1cc(C(=O)C(=O)N2Cc3ccccc3C[C@H]2C(=O)O[C@@H]2CCCc3ccc(OCc4ccncc4)cc32)cc(OC)c1OC [Compound 17, 2-(2-Oxo-2-(3,4,5-trimethoxyphenyl)-acetyl)-1,2,3,4-tetrahydroisoquinoline-3(S)-carboxylic acid 2-((7-pyridin-4-ylmethoxy)-1,2,3,4-tetrahydronaphthalen-1(R)-yl) ester]	5.6	8.7	11.1	2.3	11.7	11.7	–	–	–	–
COc1cc(C(=O)C(=O)N2CCCC[C@H]2C(=O)OC2CCCc3c(OCc4ccncc4)cccc32)cc(OC)c1OC (stereo partly drawn) [Compound 9, 1-(2-Oxo-2-(3,4,5-trimethoxyphenyl)-acetyl)-piperidine-2(S)-carboxylic acid 2-((5-pyridin-4-ylmethoxy)-1,2,3,4-tetrahydronaphthalen-1-yl) ester]	6.4	13.7	22.8	–	–	–	0.75	0.35	0.175	–
COc1cc(C(=O)C(=O)N2CCCC[C@H]2C(=O)N[C@H]2CCCc3ccc(OCc4ccncc4)cc32)cc(OC)c1OC [Compound 11B, 1-(2-Oxo-2-(3,4,5-trimethoxyphenyl)-acetyl)-piperidine-2(S)-carboxylic acid 2-((7-pyridin-4-ylmethoxy)-1,2,3,4-tetrahydronaphthalen-1(S)-yl) amide]	1.8	2.2	10.0	–	–	–	0.4	0.325	0.07	–
CCCOc1cc2c(c(OCCC)c1C)CC[C@@H](Cc1cccnc1)[C@@H]2OC(=O)[C@@H]1CCCCN1C(=O)C(=O)c1cc(OC)c(OC)c(OC)c1 (single isomer, unassigned) [Compound 30B]	1.4	2.0	> 7.0	–	–	–	–	–	–	–

Reference: patent US5726184A, “Tetralin compounds with improved MDR activity” (Vertex Pharmaceuticals Incorporated, priority 1995, dated 1998)
